# Molecular target: T1, glucokinase (GK) (Homo sapiens, UniProt P35557)
# T1 construct: I.D. No. 1 corresponds to residues 12-465 of glucokinase; made in house; host or cells: E. coli DH10b-T1r
# T1 sequence (P35557 with tags, fused parts or gaps isoform P35557-2): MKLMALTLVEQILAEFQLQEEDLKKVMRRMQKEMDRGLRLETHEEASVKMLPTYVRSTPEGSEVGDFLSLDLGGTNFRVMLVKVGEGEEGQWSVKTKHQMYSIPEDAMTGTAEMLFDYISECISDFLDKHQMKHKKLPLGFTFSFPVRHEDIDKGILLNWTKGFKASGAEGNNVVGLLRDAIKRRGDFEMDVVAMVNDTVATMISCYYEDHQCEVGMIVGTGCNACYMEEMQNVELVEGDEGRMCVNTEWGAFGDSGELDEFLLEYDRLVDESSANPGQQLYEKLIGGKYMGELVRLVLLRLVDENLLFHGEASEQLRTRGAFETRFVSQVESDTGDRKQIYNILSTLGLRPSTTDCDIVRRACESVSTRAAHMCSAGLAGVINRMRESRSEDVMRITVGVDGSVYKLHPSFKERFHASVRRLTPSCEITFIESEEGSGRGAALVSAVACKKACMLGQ
# Assay: enzymatic glucokinase activity assay (ATP consumption, KinaseGlo luminescence)
# Assay type: biochemical
# Settings: recombinant GK residues 12-465; 5 μM ATP, 5 mM Glucose; Kact = concentration that displays 50% of the maximal increase in GK activity; read-out: pKact
# Procedure, shortened: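 Activation was scored as ATP consumption, quantified by KinaseGlo luciferase luminescence after a 60 min room-temperature reaction. Reactions contained E. coli-expressed, purified GK, 5 μM ATP, 5 mM glucose, 10 mM MgCl2, 0.01% Brij35 and 2% DMSO at pH 7.2; pKact was fitted non-linearly.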
row,SMILES,EC50
1,"Cc1cc(S(=O)(=O)C2CC2)cc(=O)n1C(CC(C)(C)C)C(=O)Nc1ncc(Cl)s1 (centres unmarked) [Example 25, N-(5-chlorothiazol-2-yl)-2-(4-(cyclopropylsulfonyl)-6-methyl-2-oxopyridin-1(2H)-yl)-4,4-dimethylpentanamide]",< 1.58 µM
2,"CNS(=O)(=O)c1cccc(-c2cc(C)n([C@@H](CC3CCCCC3)C(=O)Nc3nccs3)c(=O)c2)c1 [Example 114, (S)-3-cyclohexyl-2-(6-methyl-4-(3-(N-methylsulfamoyl)phenyl)-2-oxopyridin-1(2H)-yl)-N-(thiazol-2-yl)propanamide]",1.58 to 15.8 µM
3,"CNS(=O)(=O)c1ccc(-c2cc(C)n([C@@H](CC3CCCCC3)C(=O)Nc3nccs3)c(=O)c2)cc1 [Example 115, (S)-3-cyclohexyl-2-(6-methyl-4-(4-(N-methylsulfamoyl)phenyl)-2-oxopyridin-1(2H)-yl)-N-(thiazol-2-yl)propanamide]",> 15.8 µM
4,"Cc1cc(-c2cc3ccccc3o2)cc(=O)n1[C@@H](CC1CCCCC1)C(=O)Nc1nccs1 [Example 104, (S)-2-(4-(benzofuran-2-yl)-6-methyl-2-oxopyridin-1(2H)-yl)-3-cyclohexyl-N-(thiazol-2-yl)propanamide]",> 15.8 µM
5,"O=C(Nc1ncc(Cl)s1)C(CC1CCOCC1)n1cc(S(=O)(=O)N2CCCC2)ccc1=O (centres unmarked) [Example 140, N-(5-chlorothiazol-2-yl)-2-(2-oxo-5-(pyrrolidin-1ylsulfonyl)pyridin-1(2H)-yl)-3-(tetrahydro-2H-pyran-4-yl)propanamide]",1.58 to 15.8 µM
6,"COc1ccc(CC(C(=O)Nc2nccs2)n2c(C)cc(S(=O)(=O)C3CCCC3)cc2=O)cc1 (centres unmarked) [Example 27, 2-(4-(cyclopentylsulfonyl)-6-methyl-2-oxopyridin-1(2H)-yl)-3-(4-methoxyphenyl)-N-(thiazol-2-yl)propanamide]",> 15.8 µM
7,"N#Cc1cnc(NC(=O)[C@H](CC2CCOCC2)n2ccc(S(=O)(=O)C3CCCC3)cc2=O)s1 [Example 57, (S)-N-(5-cyanothiazol-2-yl)-2-(4-(cyclopentylsulfonyl)-2-oxopyridin-1(2H)-yl)-3-(tetrahydro-2H-pyran-4-yl)propanamide]",1.58 to 15.8 µM
8,"Cc1cc(S(=O)(=O)C2CCCC2)cc(=O)n1C(Cc1ccc(O)cc1)C(=O)Nc1nccs1 (centres unmarked) [Example 28, 2-(4-(cyclopentylsulfonyl)-6-methyl-2-oxopyridin-1(2H)-yl)-3-(4-hydroxyphenyl)-N-(thiazol-2-yl)propanamide]",> 15.8 µM
9,"O=C(Nc1ncc(Cl)s1)C(CC1CCOCC1)n1cc(Cl)c(S(=O)(=O)C2CCCC2)cc1=O (centres unmarked) [Example 185, 2-(5-chloro-4-(cyclopentylsulfonyl)-2-oxopyridin-1(2H)-yl)-N-(5-chlorothiazol-2-yl)-3-(tetrahydro-2H-pyran-4-yl)propanamide]",1.58 to 15.8 µM
10,"Cc1cc(S(=O)(=O)C2CC2)cc(=O)n1[C@H](CC1CCOCC1)C(=O)Nc1ncc(Cl)s1 [Example 173, (R)-N-(5-chlorothiazol-2-yl)-2-(4-(cyclopropylsulfonyl)-6-methyl-2-oxopyridin-1(2H)-yl)-3-(tetrahydro-2H-pyran-4-yl)propanamide]",> 15.8 µM
11,"Cc1cc(S(=O)(=O)C2CCCC2)cc(=O)n1[C@@H](CC1CCOCC1)C(=O)Nc1ccc(F)cn1 [Example 165, (S)-2-(4-(cyclopentylsulfonyl)-6-methyl-2-oxopyridin-1(2H)-yl)-N-(5-fluoropyridin-2-yl)-3-(tetrahydro-2H-pyran-4-yl)propanamide]",1.58 to 15.8 µM
12,"Cc1cc(S(=O)(=O)Cc2ccco2)cc(=O)n1C(CC1CCCCC1)C(=O)Nc1nccs1 (centres unmarked) [Example 81, 3-cyclohexyl-2-(4-(furan-2-ylmethylsulfonyl)-6-methyl-2-oxopyridin-1(2H)-yl)-N-(thiazol-2-yl)propanamide]",< 1.58 µM
13,"Cc1cc(S(=O)(=O)C2CC2)cc(=O)n1[C@H](CC1CCCC1)C(=O)Nc1cnccn1 [Example 170, (R)-3-cyclopentyl-2-(4-(cyclopropylsulfonyl)-6-methyl-2-oxopyridin-1(2H)-yl)-N-(pyrazin-2-yl)propanamide]",> 15.8 µM
14,"Cc1cc(S(=O)(=O)C2CCS(=O)(=O)CC2)cc(=O)n1C(CC1CCCCC1)C(=O)Nc1ncc(F)s1 (centres unmarked) [Example 161, N-(5-fluorothiazol-2-yl)-2-(4-(1,1-dioxotetrahydrothiopyran-4-ylsulfonyl)-6-methyl-2-oxopyridin-1(2H)-yl)-3-cyclohexyipropanamide]",1.58 to 15.8 µM
15,"Cc1ccc(CC(C(=O)Nc2nccs2)n2c(C)cc(S(=O)(=O)C3CCCC3)cc2=O)cc1 (centres unmarked) [Example 10, 2-(4-(cyclopentylsulfonyl)-6-methyl-2-oxopyridin-1(2H)-yl)-N-(thiazol-2-yl)-3-p-tolylpropanamide]",> 15.8 µM
16,"CC#CCC(C(=O)Nc1ncc(Cl)s1)n1ccc(S(C)(=O)=O)cc1=O (centres unmarked) [Example 26, N-(5-chlorothiazol-2-yl)-2-(4-(methylsulfonyl)-2-oxopyridin-1(2H)-yl)hex-4-ynamide]",> 15.8 µM
17,"Cc1cc(S(=O)(=O)c2cccs2)cc(=O)n1C(CC1CCCCC1)C(=O)Nc1ncc(Cl)s1 (centres unmarked) [Example 60, N-(5-chlorothiazol-2-yl)-3-cyclohexyl-2-(6-methyl-2-oxo-4-(thiophen-2-ylsulfonyl)pyridin-1(2H)-yl)propanamide]",< 1.58 µM

# More lines, now with the values ahead:
row,EC50,SMILES
1,> 15.8 µM,"O=C(Nc1nc2cccnc2s1)[C@@H](CC1CCOCC1)n1ccc(S(=O)(=O)C2CC2)cc1=O [Example 51, (R)-2-(4-(cyclopropylsulfonyl)-2-oxopyridin-1(2H)-yl)-3-(tetrahydro-2H-pyran-4-yl)-N-(thiazolo[5,4-b]pyridin-2-yl)propanamide]"
2,1.58 to 15.8 µM,"Cn1ccc(NC(=O)[C@H](CC2CCOCC2)n2ccc(S(=O)(=O)C3CC3)cc2=O)n1 [Example 74, (S)-2-(4-(cyclopropylsulfonyl)-2-oxopyridin-1(2H)-yl)-N-(1-methyl-1H-pyrazol-3-yl)-3-(tetrahydro-2H-pyran-4-yl)propanamide]"
3,1.58 to 15.8 µM,"O=C(Nc1ncc(Cc2ccc(F)cc2)s1)C(CC1CCOCC1)n1ccc(S(=O)(=O)C2CC2)cc1=O (centres unmarked) [Example 138, 2-(4-(cyclopropylsulfonyl)-2-oxopyridin-1(2H)-yl)-N-(5-(4-fluorobenzyl)thiazol-2-yl)-3-(tetrahydro-2H-pyran-4-yl)propanamide]"
4,1.58 to 15.8 µM,"COc1ccc2nc(NC(=O)[C@@H](CC3CCCCC3)n3c(C)cc(S(=O)(=O)C4CC4)cc3=O)sc2n1 [Example 122, (R)-3-cyclohexyl-2-(4-(cyclopropylsulfonyl)-6-methyl-2-oxopyridin-1(2H)-yl)-N-(5-methoxythiazolo[5,4-b]pyridin-2-yl)propanamide]"
5,1.58 to 15.8 µM,"O=C(Nc1nc2ccc(F)cc2s1)C(CC1CCOCC1)n1ccc(S(=O)(=O)C2CC2)cc1=O (centres unmarked) [Example 131, 2-(4-(cyclopropylsulfonyl)-2-oxopyridin-1(2H)-yl)-N-(6-fluorobenzo[d]thiazol-2-yl)-3-(tetrahydro-2H-pyran-4-yl)propanamide]"
6,< 1.58 µM,"O=C(Nc1ncc(F)s1)[C@H](CC1CCOCC1)n1ccc(S(=O)(=O)C2CC2)cc1=O [Example 35, (S)-2-(4-(cyclopropylsulfonyl)-2-oxopyridin-1(2H)-yl)-N-(5-fluorothiazol-2-yl)-3-(tetrahydro-2H-pyran-4-yl)propanamide]"
7,> 15.8 µM,"CS(=O)(=O)c1ccn([C@H](CC2CCOCC2)C(=O)Nc2ncc(Cl)s2)c(=O)c1 [Example 22, (R)-N-(5-chlorothiazol-2-yl)-2-(4-(methylsulfonyl)-2-oxopyridin-1(2H)-yl)-3-(tetrahydro-2H-pyran-4-yl)propanamide]"
8,1.58 to 15.8 µM,"O=C(Nc1ncc(Cl)s1)[C@H](CC1CCOCC1)n1ccc(S(=O)(=O)CC(F)(F)F)cc1=O [Example 149, (S)-N-(5-chlorothiazol-2-yl)-2-(2-oxo-4-(2,2,2-trifluoroethylsulfonyl)pyridin-1(2H)-yl)-3-(tetrahydro-2H-pyran-4-yl)propanamide]"
9,< 1.58 µM,"COc1ccc2nc(NC(=O)[C@H](CC3CCCCC3)n3ccc(S(=O)(=O)C4CC4)cc3=O)sc2n1 [Example 76, (S)-3-cyclohexyl-2-(4-(cyclopropylsulfonyl)-2-oxopyridin-1(2H)-yl)-N-(5-methoxythiazolo[5,4-b]pyridin-2-yl)propanamide]"
10,> 15.8 µM,"O=C(Nc1ncc(Cl)s1)[C@@H](CC1CCOCC1)n1ccc(S(=O)(=O)CC(F)(F)F)cc1=O [Example 148, (R)-N-(5-chlorothiazol-2-yl)-2-(2-oxo-4-(2,2,2-trifluoroethylsulfonyl)pyridin-1(2H)-yl)-3-(tetrahydro-2H-pyran-4-yl)propanamide]"
11,> 15.8 µM,"COc1ccc2nc(NC(=O)[C@@H](CC3CCOCC3)n3ccc(S(=O)(=O)CCCO)cc3=O)sc2n1 [Example 71, (R)-2-(4-(3-hydroxypropylsulfonyl)-2-oxopyridin-1(2H)-yl)-N-(5-methoxythiazolo[5,4-b]pyridin-2-yl)-3-(tetrahydro-2H-pyran-4-yl)propanamide]"
12,> 15.8 µM,"N#Cc1cnc(NC(=O)[C@@H](CC2CCOCC2)n2ccc(S(=O)(=O)C3CCCC3)cc2=O)s1 [Example 56, (R)-N-(5-cyanothiazol-2-yl)-2-(4-(cyclopentylsulfonyl)-2-oxopyridin-1(2H)-yl)-3-(tetrahydro-2H-pyran-4-yl)propanamide]"

# — patent US8163779B2, “Glucokinase activators” (Takeda San Diego, Inc., priority 2006, dated 2012)
